Reference: patent US9266835B2, “Quinoline derivatives useful as CB-1 inverse agonists” (JANSSEN PHARMACEUTICA NV, priority 2014, dated 2016)
Where a name gives a salt, the structure may show the parent alone.

Columns and labels:
[1] = target: Human CB2R (Cannabinoid receptor 2) (Homo sapiens (Human), UniProt P34972); test: CB-2 in vitro cAMP assay (HTRF), inverse agonism; format: cell-based; settings: mean where tested more than once
Source text: (§1) CB1 and CB2 receptors are Gi-coupled GPCR. Activation of CB1 and CB2 receptors results in a decrease in cAMP production. An inverse agonist of the CB1 or CB2 receptor results in the opposite effect, an increase of cAMP production. The principle of this assay is based on HTRF® technology (Homogeneous Time-Resolved Fluorescence). The method is a competitive immunoassay between native cAMP produced by cells and the cAMP labeled with the fluorophore d2. The tracer binding is quantified by a Mab anti-cAMP labeled with Eu3+TBP-NHS Cryptate (supplied as part of the assay kit). The specific signal (i.e. energy transfer) is inversely proportional to the concentration of cAMP in the standard or sample.
(§2) Human CB1R (Cannabinoid receptor 1) was stably transfected in HEK-293 cells (DiscoveRx, cat: 93-0200C1). Human CB2R (Cannabinoid receptor 2) was stably transfected in HEK-293 cells (DiscoveRx, cat: 93-0201C1). Cell cultures were maintained in media: DMEM (Invitrogen Cat#12430-054) supplemented with 10% HI FBS (Invitrogen Cat#16140-071), 1% L-glutamine (Invitrogen Cat#25030-081), 0.2 mg/ml Hygromycin B (Invitrogen Cat#10687-010), 600 μg/mL G418 (Invitrogen Cat#10131-035), and 1X Penn/Strep (Invitrogen 15140-122). After cell expansion, aliquots were cryo-stored in media containing 5% DMSO (Pierce Cat#20684).
(§3) One day prior to experiments media was warmed to 37° C. and the cryo-stored cells were thawed in a 37° C. water bath. The cells were then added to media (10× volume) and the mixture was centrifuged at 1000 RPM for 5 min. The supernate was removed and the cells were re-suspended in media. A sample of the cell suspension was evaluated on a Cedex XS automated cell counter (Innovatis Systems) to determine viable cells/ml. Additional media was added to the cells to achieve a final cell density of 4E5 cells/mL. The cells were then plated into 384 well PDL white solid bottom plates (Greiner, Cat#781945) at 20 μL per well using a Multidrop (Thermo Scientific). Cells were removed from Row P (location of cAMP standards). Two columns of cells were plated into a clear bottom 384 well PDL coated plate (Greiner, Cat#781944) to view confluence the day of the assay. The cell plates were lidded and stored for 15 minutes in a hood, then transferred to an incubator (37° C., 5% CO2, 95% humidity) overnight.
(§4) DMSO was added to all wells of 384 well V bottom polystyrene plate (Greiner, Cat#781280) except to columns 1 and 13, rows 0 and P and wells M13-M23 and N13-N23. Test compounds (60 μL, 10 mM) were added to Column 1 and 13 (A1 through N1 and A13 through L13). Test compounds were serially diluted 1/3 by transferring and mixing 20 μl sample with 40 μL DMSO.
(§5) DMSO (40 μL) was added to wells of 384 well V bottom polystyrene plate: O2 through O11, M14 through M23, N14 through N23, and O14 through O23. AM630 (also known as [6-iodo-2-methyl-1-[2-(4-morpholinyl)ethyl]-1H-indol-3-yl](4-methoxyphenyl)-methanone, Cayman Chemical, Cat#10006974) (60 μL, 10 mM) was added to 01; and 1-(2,4-dichlorophenyl)-7-[(4-fluorophenyl)methylene]-4,5,6,7-tetrahydro-N-1-piperidinyl-1H-indazole-3-carboxamide (60 μL, 10 mM) was added to N13. The control was serially diluted 1/3 by transferring and mixing 20 μl sample with 40 μL DMSO. This process resulted 11 doses per control, 10 mM to […].
(§6) Cells plated the day prior to the assay in clear bottom plates were viewed on an inverse microscope to ensure confluency in the range of 60-75%. […]

[2] = target: Human CB1R (Cannabinoid receptor 1) (Homo sapiens (Human), UniProt P21554); test: CB-1 in vitro cAMP assay (HTRF), inverse agonism; format: cell-based; settings: mean where tested more than once
Sequence of Human CB1R (Cannabinoid receptor 1) (P21554 whole entry): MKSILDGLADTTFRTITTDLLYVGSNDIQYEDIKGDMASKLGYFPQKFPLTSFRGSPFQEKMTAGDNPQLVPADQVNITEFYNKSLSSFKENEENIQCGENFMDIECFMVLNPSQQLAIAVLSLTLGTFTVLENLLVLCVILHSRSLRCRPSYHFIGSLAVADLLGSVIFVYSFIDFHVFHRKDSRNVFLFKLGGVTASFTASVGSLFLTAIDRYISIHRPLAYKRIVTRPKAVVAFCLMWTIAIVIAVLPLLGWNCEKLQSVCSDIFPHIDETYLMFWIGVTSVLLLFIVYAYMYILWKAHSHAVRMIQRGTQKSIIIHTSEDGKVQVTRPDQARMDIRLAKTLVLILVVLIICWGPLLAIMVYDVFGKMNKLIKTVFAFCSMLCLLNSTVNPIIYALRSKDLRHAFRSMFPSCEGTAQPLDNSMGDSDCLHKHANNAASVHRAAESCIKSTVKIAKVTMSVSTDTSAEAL
Source text: as §1, §2, §3, §4, §5, §6

Sequence of Human CB2R (Cannabinoid receptor 2) (P34972 whole entry): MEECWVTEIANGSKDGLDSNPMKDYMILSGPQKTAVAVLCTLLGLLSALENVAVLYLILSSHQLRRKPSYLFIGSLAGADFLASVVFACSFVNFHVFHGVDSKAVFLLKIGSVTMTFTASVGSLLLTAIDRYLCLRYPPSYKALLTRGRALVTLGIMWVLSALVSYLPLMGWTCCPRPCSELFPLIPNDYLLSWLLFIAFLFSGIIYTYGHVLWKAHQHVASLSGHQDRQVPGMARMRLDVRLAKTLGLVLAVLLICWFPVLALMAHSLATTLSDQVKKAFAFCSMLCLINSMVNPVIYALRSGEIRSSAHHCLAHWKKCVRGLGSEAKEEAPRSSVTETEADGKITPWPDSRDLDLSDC

SMILES	EC50 [1] [nM]	EC50 [2] [nM]
O=C(O)c1cccc(CN2CCC(Nc3cc(=O)[nH]c4ccc(C(c5ccc(Cl)cc5)c5ccc(Cl)cc5)cc34)CC2)c1 [Compound 129, 3-((4-((6-(bis(4-chlorophenyl)methyl)-2-oxo-1,2-dihydroquinolin-4-yl)amino)piperidin-1-yl)methyl)benzoic acid]	> 10000	157
CCOC(=O)N1CCC(Nc2cc(=O)[nH]c3ccc(C(c4ccc(Cl)cc4)c4nccs4)cc23)CC1 (stereo not shown) [Compound 37, Ethyl 4-({6-[(4-chlorophenyl)(1,3-thiazol-2-yl)methyl]-2-oxo-1,2-dihydroquinolin-4-yl}amino)piperidine-1-carboxylate]	> 10000	19
Cn1c(=O)cc(NC2CCN(S(=O)(=O)C(F)(F)F)CC2)c2cc(C(c3ccc(Cl)cc3)c3nccs3)ccc21 (stereo not shown) [Compound 89, 6-[(4-chlorophenyl)(1,3-thiazol-2-yl)methyl]-1-methyl-4-[[1-(trifluoromethane)sulfonylpiperidin-4-yl]amino]-1,2-dihydroquinolin-2-one]	9900	14
CC(C)(C)OC(=O)NCCCCOc1cc(C(c2ccc(Cl)cc2)c2ccc(Cl)cc2)cc2c(NC3CCN(S(=O)(=O)C(F)(F)F)CC3)ccnc12 [Compound 539, tert-butyl (4-((6-(bis(4-chlorophenyl)methyl)-4-((1-((trifluoromethyl)sulfonyl)piperidin-4-yl)amino)quinolin-8-yl)oxy)butyl)carbamate]	> 21000	96
O=c1cc(NC2CCN(CC(F)(F)F)CC2)c2cc(C(c3ccc(Cl)cc3)c3ccc(Cl)cc3)ccc2[nH]1 [Compound #77, 6-(bis(4-chlorophenyl)methyl)-4-((1-(2,2,2-trifluoroethyl)piperidin-4-yl)amino)quinolin-2(1H)-one]	> 10000	3
O=C(O)c1ccc(C(=O)N2CCC(Nc3cc(=O)[nH]c4ccc(C(c5ccc(Cl)cc5)c5ccc(Cl)cc5)cc34)CC2)cc1 [Compound 116, 4-{[4-({6-[Bis(4-chlorophenyl)methyl]-2-oxo-1,2-dihydroquinolin-4-yl}amino)piperidin-1-yl]carbonyl}benzoic acid]	> 10000	438
O=c1cc(NC2CCN(S(=O)(=O)C(F)(F)F)CC2)c2cc(C(c3ccc(Cl)cc3)c3ccc(C(F)(F)F)cc3)ccc2[nH]1 (stereo not shown) [Compound 62, 6-{(4-Chlorophenyl)[4-(trifluoromethyl)phenyl]methyl}-4-({1-[(trifluoromethyl)sulfonyl]-piperidin-4-yl}amino)quinolin-2(1H)-one]	3230	29
Clc1ccc(C(c2ccc(Cl)cc2)c2ccc3nccc(/C=C/c4ccccc4)c3c2)cc1 [Compound 503, (E)-6-(bis(4-chlorophenyl)methyl)-4-styrylquinoline]	> 10000	191
CC(C)(C)OC(=O)N1CC(CNc2cc(=O)[nH]c3ccc(C(c4ccc(Cl)cc4)c4nccs4)cc23)C1 (stereo not shown) [Compound 42, tert-Butyl 3-[({6-[(4-chlorophenyl)(1,3-thiazol-2-yl)methyl]-2-oxo-1,2-dihydroquinolin-4-yl}amino)methyl]azetidine-1-carboxylate]	–	2330

The next lines start with the values.

EC50 [1] [nM]	EC50 [2] [nM]	SMILES
> 10000	220	O=C(O)CC(=O)N1CCC(Nc2cc(=O)[nH]c3ccc(C(c4ccc(Cl)cc4)c4ccc(Cl)cc4)cc23)CC1 [Compound 96, 3-[4-({6-[Bis(4-chlorophenyl)methyl]-2-oxo-1,2-dihydroquinolin-4-yl}amino)piperidin-1-yl]-3-oxopropanoic acid]
> 10000	254	O=C(N1CC=C(c2cc(=O)[nH]c3ccc(C(c4ccc(Cl)cc4)c4ccc(Cl)cc4)cc23)CC1)C(F)(F)F [Compound 14, 6-(bis(4-chlorophenyl)methyl)-4-(1-(2,2,2-trifluoroacetyl)-1,2,3,6-tetrahydropyridin-4-yl)quinolin-2(1H)-one]
50	10	O=c1cc(NC2CCN(S(=O)(=O)C(F)(F)F)CC2)c2cc(C(c3ccc(Cl)cc3)c3ccc(Cl)cc3)cc(Br)c2[nH]1 [Compound 92, 6-(bis(4-chlorophenyl)methyl)-8-bromo-4-((1-((trifluoromethyl)sulfonyl)piperidin-4-yl)amino)quinolin-2(1H)-one]
> 10000	> 10000	CCCCNc1cc(C(c2ccc(Cl)cc2)c2ccc(Cl)cc2)cc2c(NC3CCN(S(=O)(=O)C(F)(F)F)CC3)cc(=O)n(C)c12 [Compound 139, 6-[bis(4-chlorophenyl)methyl]-8-(butylamino)-1-methyl-4-[[1-(trifluoromethane)sulfonylpiperidin-4-yl]amino]-1,2-dihydroquinolin-2-one]
910	15	COCCNc1ccc(C(c2ccc(Cl)cc2)c2cc(NCCOC)c3[nH]c(=O)cc(NC4CCN(S(=O)(=O)C(F)(F)F)CC4)c3c2)cc1 (stereo not shown) [Compound 101, 6-((4-chlorophenyl)(4-((2-methoxyethyl)amino)phenyl)methyl)-8-((2-methoxyethyl)amino)-4-((1-((trifluoromethyl)sulfonyl)piperidin-4-yl)amino)quinolin-2(1H)-one]
7100	81	CCOC(=O)CCCCOc1cc(C(c2ccc(Cl)cc2)c2ccc(Cl)cc2)cc2c(NC3CCN(S(=O)(=O)C(F)(F)F)CC3)ccnc12 [Compound 540, ethyl 5-((6-(bis(4-chlorophenyl)methyl)-4-((1-((trifluoromethyl)sulfonyl)piperidin-4-yl)amino)quinolin-8-yl)oxy)pentanoate]
> 10000	342	COc1ccc(C(O)(c2ccc3nccc(/C=C/c4ccccc4)c3c2)c2nccs2)cc1 (stereo not shown) [Compound 504, (E)-(4-methoxyphenyl)(4-styrylquinolin-6-yl)(thiazol-2-yl)methanol]
> 10000	73	O=c1cc(Nc2ccc(-c3ccccc3)cc2)c2cc(C(c3ccc(Cl)cc3)c3ccc(Cl)cc3)ccc2[nH]1 [Compound 133, 4-(Biphenyl-4-ylamino)-6-[bis(4-chlorophenyl)methyl]-quinolin-2(1H)-one]
> 10000	102	CC(=O)NCCCCOc1cc(C(c2ccc(Cl)cc2)c2ccc(Cl)cc2)cc2c(NC3CCN(S(=O)(=O)C(F)(F)F)CC3)ccnc12 [Compound 543, N-(4-((6-(bis(4-chlorophenyl)methyl)-4-((1-((trifluoromethyl)sulfonyl)piperidin-4-yl)amino)quinolin-8-yl)oxy)butyl)acetamide, trifluoroacetic acid salt]
> 10000	45	O=c1cc(NCc2ccc(C(F)(F)F)cc2)c2cc(C(c3ccc(Cl)cc3)c3ccc(Cl)cc3)ccc2[nH]1 [Compound 58, 6-[Bis(4-chlorophenyl)methyl]-4-{[4-(trifluoromethyl)benzyl]amino}-quinolin-2(1H)-one]
670	52	O=C1CCCN1c1cc(C(c2ccc(Cl)cc2)c2ccc(Cl)cc2)cc2c(NC3CCN(S(=O)(=O)C(F)(F)F)CC3)cc(=O)[nH]c12 [Compound 107, 6-(bis(4-chlorophenyl)methyl)-8-(2-oxopyrrolidin-1-yl)-4-((1-((trifluoromethyl)sulfonyl)piperidin-4-yl)amino)quinolin-2(1H)-one]
–	> 10000	O=c1cc(NCC2CNC2)c2cc(C(c3ccc(Cl)cc3)c3nccs3)ccc2[nH]1 (stereo not shown) [Compound 43, 4-[(Azetidin-3-ylmethyl)amino]-6-[(4-chlorophenyl)(1,3-thiazol-2-yl)methyl]quinolin-2(1H)-one]
